Patent publication US20200255828A1, “METHODS AND COMPOSITIONS FOR ALTERING FUNCTION AND STRUCTURE OF CHROMATIN LOOPS AND/OR DOMAINS” (THE BROAD INSTITUTE, INC., priority 2017, published 2020)

How the values were obtained:
HCT-116 RAD21-mAC cells [1] = experiment: In situ Hi-C: contact domains and genome compartmentalization (Arrowhead corner score, eigenvector, sliding correlation score); type: cell-based, human
Description: Domains were annotated in both untreated and treated maps using Arrowhead (Durand et al., 2016b; Rao et al., 2014). Domains were called at 5 kb and 10 kb resolutions using default parameters and merged (retaining the 5 kb domain annotation for any pair of domains annotated in both the 5 kb and 10 kb annotations). Applicants annotated 9,845 domains in our untreated maps and 2,090 domains in our treated maps.
The most common method used for classifying Hi-C patterns is the principal component (PC) approach, which Applicants introduced in (Lieberman-Aiden et al., 2009). In this approach, each intrachromosomal contact matrix is converted to an observed/expected matrix, and the first principal component of this matrix is used to bifurcate the data into two clusters.
Applicants first calculated the first three principal components of the 25-kb resolution observed/expected matrix for each chromosome (constructed using Juicer) using scikit learn's RandomizedPCA function. Applicants chose the principal component most correlated with GC content and assigned sign such that the vector was positively correlated with the GC content vector. Applicants then calculated the correlation of the eigenvector for each chromosome between untreated and treated maps. The mean correlation was 0.968.
To identify transitions in compartment state at higher resolution, Applicants used a combination of techniques. First, Applicants calculated an edge score using an algorithm similar to Canny edge detection. For every 25 kb locus in the genome, Applicants looked at the corresponding column of the 25 kb log 2(observed/expected) matrix. For every pixel (i,j) in column j, Applicants calculated a gradient=[i,j:j+3]−[i,j−4,j−1]. Applicants then searched for stretches of at least 7 pixels in the column with a gradient x such that abs(x) was greater than 0.5. […] Finally, Applicants summed the number of pixels in a column belonging to an edge to calculate the edge score for a locus. Applicants then called local peaks in this track which could correspond to compartment state transitions since a compartment state transition at locus I will create an edge between locus i−1 and i.
As described in Section V.a.3 of Rao et al., 2014, this is akin to measures in finance that correlate returns of prices to identify similarities between stocks. To calculate this sliding derivative correlation score, Applicants calculated the gradient in the log 2(observed/expected) matrix over every boundary called in our edge score track. More specifically, for every locus i, and all boundaries j in boundary set J that were within 15 Mb of i, Applicants calculated the difference of mean ([j:j+5,i]) and mean ([j−6:j−1,i]). Applicants then calculated the Spearman correlation coefficient of these two vectors (one vector for the gradients at all boundaries j in J for the pixels upstream of i, and one vector for the pixels downstream of i). Applicants excluded the derivative signal at pixels not located at compartment state transitions as defined by the edge score to reduce noise, reasoning that pixels inside compartment intervals were unlikely to contribute meaningful rises/falls in contact probability. Similarly, Applicants only included pixels within 15 mb of i to reduce the noise arising from sparsity far off the diagonal.
Applicants then identified compartment boundaries by calling local peaks in the edge score track and local valleys in the sliding derivative correlation score track and merging the two peak call lists.
To assess the presence and strength of contact domains after auxin treatment, Applicants used the Arrowhead algorithm (Durand et al., 2016b; Rao et al., 2014). The Arrowhead algorithm calculates a corner score for every pixel, where higher corner score values represent a higher likelihood that a pixel is at the corner of a domain (see Section IV. a.3 of the Extended Experimental Procedures of Rao et al., 2014). […]

HCT-116 RAD21-mAC cells [2] = experiment: APA for cohesin-independent links after cohesin degradation with ATP depletion; type: cell-based, human; conditions: auxin 6 hours, without any additional treatment
Description: Using the degron system, Applicants can directly measure the influence of cellular processes on loop formation (Vian et al, 2018). […] Applicants also tested interchromasomal cohesin-independent links requirement for ATP after cohesin degradation and observed that depletion of ATP strengthens the interactions between superenhancers (FIG. 23).

O=C(O)Cc1c[nH]c2ccccc12 [auxin, indole-3-acetic acid]
dip in sliding correlation in treated cells, H3K27me3 transitions spanned by loop domains (HCT-116 RAD21-mAC cells [1]; 209 transitions, untreated 0.01 increase): 0.03
dip in sliding correlation in treated cells, H3K27Ac transitions spanned by loop domains (HCT-116 RAD21-mAC cells [1]; 264 transitions, untreated 0.02): 0.19
dip in sliding correlation in treated cells, H3K27Ac transitions at loop domain boundaries (HCT-116 RAD21-mAC cells [1]; 307 transitions, untreated 0.41): 0.49
decrease in sliding correlation score in treated cells, compartment boundaries contained within loop domains (HCT-116 RAD21-mAC cells [1]; 349 boundaries, untreated 0.10): 0.31
decrease in sliding correlation score in treated cells, H3K27Ac transitions at loop anchors (HCT-116 RAD21-mAC cells [1]; 381 transitions, untreated 0.10): 0.26
dip in sliding correlation in treated cells, H3K27me3 transitions at loop domain boundaries (HCT-116 RAD21-mAC cells [1]; 384 transitions, untreated 0.29): 0.33
decrease in sliding correlation score in treated cells, compartment boundaries at loop domain anchors (HCT-116 RAD21-mAC cells [1]; 389 boundaries, untreated 0.35): 0.53
decrease in sliding correlation score in treated cells, H3K27me3 transitions spanned by loops (HCT-116 RAD21-mAC cells [1]; 391 transitions, untreated 0.27): 0.31
decrease in sliding correlation score in treated cells, H3K27Ac transitions spanned by loops (HCT-116 RAD21-mAC cells [1]; 426 transitions, untreated 0.41): 0.50
decrease in sliding correlation score in treated cells, H3K27me3 transitions at loop anchors (HCT-116 RAD21-mAC cells [1]; 469 transitions, untreated 0.03): 0.12
mean Pearson's r of Hi-C correlation map eigenvectors, untreated vs auxin treated (HCT-116 RAD21-mAC cells [1]; across all chromosomes): 0.968
APA score for cohesin-independent links (HCT-116 RAD21-mAC cells [2]): 8.28
